Entries after “also recorded” stand apart in the source; their conditions may differ.

We go through three molecules from patent US20220323406A1, “METHODS AND COMPOSITIONS FOR DIFFERENTIATING STEM CELLS” (Massachusetts Institute of Technology, priority 2019, published 2022).

The test system of series [1] is Paneth cells in ENR+CD organoids. As to the kind of experiment: Flow cytometry of 3D-cultured intestinal organoids, Paneth cells (lysozyme-positive, CD24-positive). The series is classed as cell-based, mouse. The settings on record: 160 nM KPT-8602 or 2 ng/mL Leptomycin B, ENR+CD 6 days. The text has this:
Flow cytometry analysis (3D culture). ISC-enriched organoids cultured in 3D Matrigel with ENRCV media were passaged to 24-well plate in 3D Matrigel with ENRCV. At day zero, media were replaced to ENRCD with or without indicated compounds, and media were replaced every other day. At day six, cells were washed with basal media, and then harvested from Matrigel by mechanical disruption in TrypLE Express (ThermoFisher, 12605010) to remove Matrigel and dissociate organoids to single cells. After vigorous pipetting and incubation at 37° C. for 20 min, dissociated organoids were strained through a 35 μm cell strainer into a tube (Falcon, 352235). […] Cell pellets were resuspended in FACS buffer (2% FBS in PBS), and then transferred to an ultra low-bind 96-well plate (Corning, 7007). Cells were stained with Zombie-violet viability dye (BioLegend, 423107) at 100× for viability staining and/or antibody staining solution. FITC-conjugated antibody for lysozyme (Dako, F0372) and APC-conjugated antibody for CD24 (BioLegend, 138505) were used at 100× dilution. Flow cytometry was performed using an LSR Fortessa (BD; Koch Institute Flow Cytometry Core at MIT). The data were analyzed using FlowJo v10 software.
The results of primary and secondary screening reflect a mixture of potential effects arising from small molecule treatment which may result in increases in total LYZ secretion. This includes contributions from enhanced Paneth cell differentiation, altered Paneth cell activity and changes in total cell number concurrent with differentiation. To better inform how the 6 compounds identified in the screen increased total secreted LYZ, and to isolate only those which enhance Paneth differentiation robustly, Applicants next utilized flow cytometry to measure the changes in Paneth cell representation within the treated organoids. […] Single live cells were selected by several gating strategies and Paneth cells were identified as lysozyme-high, CD24-mid, side scatter-high (SSC-high) (FIG. 27E). […] To evaluate whether the culture media supplements C and D may alter the effects of the 6 hits, Applicants also performed lysozyme assay in the canonical ENR culture condition in 3-D (because Paneth cells exist in an immature state within ENR, Applicants were unable to robustly quantify Paneth cell number via flow cytometry).
Flow cytometry. ISC-enriched organoids in 3D Matrigel culture were passaged to a 48-well plate and induced differentiation for 6 days by ENR+CD media containing DMSO or each drug indicated in the figures. DMSO- or drug-containing media were changed every other day. On day 6, cells were washed twice with basal media, then harvested from Matrigel by the mechanical disruption in TrypLE Express (Thermo, #12605010) to remove Matrigel and dissociate organoids to single cells. After vigorous pipetting and incubation at 37° C. for 15 min, the cell solution was diluted twice with basal media and centrifuged at 300 ref for 3 min. The cell pellet was resuspended in FACS buffer (PBS containing 2% FBS) and replaced into a 96-well Clear Round Bottom Ultra-Low Attachment Microplate (Corning, #7007). The cell solution was centrifuged again at 300 rcf for 3 min at 4° C. to pellet the cells. Cells were stained with Zombie-violet dye (BioLegend, #423113) at 100× for viability staining for 20 min at RT in the dark. After centrifugation for 3 min at 300 rcf, cells were fixed in fixation buffer (FACS buffer containing 1% formaldehyde (Thermo, #28906)) for 15 min on ice in the dark. Cells were centrifuged again for 3 min at 300 rcf and blocked with staining buffer (FACS buffer containing 0.5% Tween20 (Sigma, P2287)) for 15 min at RT in the dark. Pelleted cells by the centrifugation for 3 min at 300 rcf are stained with FITC-conjugated anti-lysozyme antibody (Dako, F0372) and APC-conjugated anti-CD24 antibody (Biolegend, #138505) at 100× for 45 min at RT in the dark.
Background: A flow cytometer gives signals particle by particle.

The subject of series [2] is lysozyme (LYZ) in intestinal organoids. Briefly: Western blotting of lysozyme in 3D-cultured intestinal organoids. The series is classed as cell-based, mouse. The settings on record: ENR+CV, ENR+CD or ENR, 6 days. The text has this:
Western blotting. ISC-enriched organoids cultured in 3D Matrigel with ENRCV media were passaged to 24-well plate in 3D Matrigel with ENRCV. At day zero, media were replaced to ENR or ENRCD with or without indicated compounds, and media were replaced every other day. At day six, cells were harvested from Matrigel by mechanical disruption and suspended in basal media. Cell pellets were lysed with Pierce® IP lysis buffer (ThermoFisher, 87787) containing Halt™ Protease Inhibitor Cocktail, EDTA-Free (ThermoFisher, 87785) after 3-minute centrifuge at 300×g at 4° C. Cell extracts were resolved by NuPAGE® SDS-PAGE Gel system (ThermoFisher) and electroblotted onto polyvinylidene difluoride membranes using Criterion™ Blotter (Biorad). The membranes were blocked with 2% Blotting-Grade Blocker (Biorad, 1706404) in TBS-T (50 mM Tris-HCl, 150 mM NaCl, and 0.1% Tween 20, pH 8.0) and then probed with appropriate antibodies. Detection was performed using ECL Select™ Western Blotting Detection Reagent (Amersham, 45-000-999) and ImageQuant LAS4000 (GE Healthcare).
Western blotting. Organoid-containing gel was homogenized in basal medium and centrifuged at 300 rcf for 3 min. Organoid pellet was lysed with ice-cold Pierce IP Lysis Buffer (Thermo Fisher Scientific, #87787) containing Halt Protease Inhibitor Cocktail, EDTA-Free (Thermo Fisher Scientific, #87785) and incubated on ice for 20 min. The lysate was centrifuged at 17,000 rcf for 10 min, and the supernatant was combined with NuPAGE LDS Sample Buffer (Thermo Fisher Scientific, NP0007). Protein concentration was determined by Pierce 660 nm Protein Assay (Thermo Fisher Scientific, #22660) and normalized to the lowest concentration among each sample set. […] Chemiluminescent signals were detected by LAS4000 (GE Healthcare) using Amersham ECL Select Western Blotting Detection Reagent (GE Healthcare, #45-000-999), and total protein signals were obtained by Odyssey Imaging System (LI-COR Biosciences) using REVERT Total Protein Stain Kit (LI-COR Biosciences, #926-11010).

The next series deals with intestinal organoids. Briefly: Population RNA-sequencing of treated organoids. The series is classed as cell-based, mouse. The settings on record: ENR+CV, ENR+CD or ENR. As to the method: Population RNA-sequencing. Population RNA-seq was performed using a derivative of the Smart-Seq2 protocol for single cells. In brief, organoid media was aspirated and RLT+BME (Qiagen) was added to each well, and plate shaken for 30 minutes to fully lyse. Lysate was aliquoted into 4 identical fractions and stored at −80° C. until reverse transcription. RNA lysate was thawed and cleaned with a 2.2×SPRI ratio using Agencourt RNAClean XP beads (Beckman Coulter, A63987). RNA-seq was performed on a bulk population of sorted basal cells using Smart-Seq2 chemistry, starting with a 2.2×SPRI ratio cleanup. After oligo-dT priming, Maxima H Minus Reverse Transcriptase (ThermoFisher EP0753) was used to synthesize cDNA with an elongation step at 52° C. before PCR amplification (15 cycles for tissue, 18 cycles for sorted basal cells) using KAPA HiFi PCR Mastermix (Kapa Biosystems KK2602). Sequencing libraries were prepared using the Nextera XT DNA tagmentation kit (Illumina FC-131-1096) with 250 pg input for each sample. Libraries were pooled post-Nextera and cleaned using Agencourt AMPure SPRI beads with successive 0.7× and 0.8× ratio SPRIs and sequenced with an Illumina 75 Cycle NextSeq500/550v2 kit (Illumina FC-404-2005) with loading density at […], with paired end 35 cycle read structure. Samples were sequenced at an average read depth of 8.44 million reads per sample and a total of 96 samples.
Organoid samples were aligned to the Mm10 genome and transcriptome using STAR and RSEM. […] For module scoring with the in vivo Paneth and enteroendocrine cell-defining genes, Applicants used previously published gene sets and computed per sample module scores through the Seurat package.

The conditions of series [3]: Roberts et al, 1986; cited from earlier work.
For series [4] the following is noted: Newlands et al, 1996; cited from earlier work.
A further series deals with ISCs / Paneth cells. The settings on record: Hayase et al., 2017; cited from earlier work.

Regarding `NC(=O)/C(=C/n1cnc(-c2cc(C(F)(F)F)cc(C(F)(F)F)c2)n1)c1cncnc1` [KPT-8602], the “Paneth cell representation / proportion in organoids” value in series [1] is reported as “statistically significant increases in Paneth cell representation; also recorded: statistically significant increases in the Paneth cell fraction; also recorded: increased the proportion of PC”. The “LYZ abundance per-mass protein (Western blot)” value in series [2] is reported as “appreciably increase LYZ abundance”. For the same molecule, the “secretory cell gene set scores (Paneth, goblet, EEC) from bulk transcripts” value in the series on intestinal organoids was “increase secretory cells (Paneth, goblet, and EEC)”.

For the molecule `CCC(=C/[C@H](C)C/C=C/C(C)=C/[C@@H](C)C(=O)[C@@H](C)[C@H](O)[C@@H](C)C/C(C)=C/C(=O)O)/C=C/[C@@H]1OC(=O)C=C[C@@H]1C` [Leptomycin B], the “Paneth cell representation / proportion in organoids” value in series [1] is listed as “statistically significant increases in Paneth cell representation; also recorded: statistically significant increases in the Paneth cell fraction”; in series [1] (listed as leptomycin B), “increased the proportion of PC”. Further, the “LYZ abundance per-mass protein (Western blot)” value in series [2] is “appreciably increase LYZ abundance”. For the same molecule, in series [3], the tolerability in animals entry is reported as “poorly tolerated with marked gastrointestinal toxicity”. Moreover, the tolerability in humans result in series [4] is listed as “poorly tolerated with marked gastrointestinal toxicity”.

B1: R-spondin1: a potent WNT agonist (protein, UniProt Q2MKA7 21-263, looked up)
R-spondin-1: SRGIKGKRQRRISAEGSQACAKGCELCSEVNGCLKCSPKLFILLERNDIRQVGVCLPSCPPGYFDARNPDMNKCIKCKIEHCEACFSHNFCTKCKEGLYLHKGRCYPACPEGSSAANGTMECSSPAQCEMSEWSPWGPCSKKQQLCGFRRGSEERTRRVLHAPVGDHAACSDTKETRRCTVRRVPCPEGQKRRKGGQGRRENANRNLARKESKEAGAGSRRRKGQQQQQQQGTVGPLTSAGPA
For B1, the “alpha-defensin secretion and dysbiosis in mice with GvHD” value in the series with ISCs / Paneth cells was “elevate the secretion of alpha-defensins and resolve dysbiosis seen in mice with GvHD”.
